Test results as given in patent US10647675B2 (priority 2015, dated 2020).
Values after ≈ are worked out from the molar mass of the structure shown.

Assays:
[1] = test system: Trichophyton mentagrophytes SM-110; assay: Antifungal activity evaluation test: minimum inhibitory concentration (MIC), broth dilution by reference to CLSI M38-A2; format: cell-based; conditions: SM110, read-out: MIC (T. menta.)
Protocol: (§1) The minimum inhibitory concentration (MIC) for Trichophyton mentagrophytes and Trichophyton rubrum was measured by the following procedure by reference to Clinical and Laboratory standards Institute (CLSI) guidelines M38-A2. Reference document for the measurement method: National Committee for a Clinical Laboratory Standards. Reference method for broth dilution antifungal susceptibility testing of filamentous fungi. Approved standard Second edition M38-A2. Wayne, Pa.: National Committee for a Clinical Laboratory Standards, 2008. • Test compound solution: A test compound was dissolved in dimethyl sulfoxide (DMSO) at a concentration of 2.5 mg/mL to give a stock solution. The stock solution was appropriately diluted with DMSO to prepare a 2-fold dilution series. As control compounds, terbinafine and amorolfine were used. • Test strains: Trichophyton mentagrophytes SM-110 and Trichophyton rubrum KD-1130 were used. • Preparation of fungal culture to be inoculated: The above-mentioned test strain was suspended in 0.05% Tween 80-containing saline, and the fungi of the genus Trichophyton were prepared to a fungal concentration of 1×10^6 cells/mL by using a hemocytometer. Then, using MOPS-buffered RPMI 1640 medium (pH 7.0) as a test medium, a fungal culture of the fungi of the genus Trichophyton was diluted 250-fold (4×10^3 cells/mL) to give a fungal culture for inoculation. • MIC measurement of genus Trichophyton fungi: MOPS-buffered RPMI 1640 medium (pH 7.0) was dispensed by 100 μL to given wells of a 96 well U-bottom microplate. Then, the test compound solution (2 μL) was added, the mixture was sufficiently stirred by a plate mixer. The fungal culture (100 μL) was inoculated and the mixture was cultured at 35° C. for 4 days (final fungal concentration: 2×10^3 cells/mL). After the culture, the minimum drug concentration of a well in which a growth inhibitory action of not less than 80% was visually observed as compared to a growth control was taken as a minimum inhibitory concentration (MIC: μg/mL).
(§2) The abbreviations in the Tables mean the following fungi and compounds. • T. menta.: Trichophyton mentagrophytes • T. rubrum: Trichophyton rubrum • TBF: terbinafine • AMF: amorolfine

[2] = test system: Trichophyton rubrum KD-1130; assay: as above; format: cell-based; conditions: KD1130, read-out: MIC (T. rubrum)
Protocol: as §1, §2

For `FC(F)(F)c1ccc(Oc2ncccc2-c2cccc3cc[nH]c23)cn1` [I-42, 7-(2-{[6-(trifluoromethyl)pyridin-3-yl]oxy}pyridin-3-yl)-1H-indole], the MIC [1] was 0.2 to 0.78 µg/mL (≈ 0.563 to 2.2 µM) and the MIC [2] was 0.2 to 0.78 µg/mL (≈ 0.563 to 2.2 µM).
Work on `FC(F)(F)c1ccc(Oc2ncccc2-c2cccc3ccncc23)cn1` [I-43, 8-(2-{[6-(trifluoromethyl)pyridin-3-yl]oxy}pyridin-3-yl)-isoquinoline] yielded an MIC [1] of 0.2 to 0.78 µg/mL (≈ 0.544 to 2.12 µM) and an MIC [2] of 0.2 to 0.78 µg/mL (≈ 0.544 to 2.12 µM).
`FC(F)(F)c1ccc(Oc2ncccc2-c2cccc3ccnn23)cn1` [I-44, 7-(2-{[6-(trifluoromethyl)pyridin-3-yl]oxy}pyridin-3-yl)-pyrazolo[1,5-a]pryidine] was tested, and the MIC [1] was ≤ 0.1 µg/mL and the MIC [2] was ≤ 0.1 µg/mL.
In the case of `FC(F)(F)c1ccc(Oc2ncccc2-c2cccc3ncnn23)cn1` [I-45, 5-(2-{[6-(trifluoromethyl)pyridin-3-yl]oxy}pyridin-3-yl)-[1,2,4]triazolo[1,5-a]pryidine], the MIC [1] is reported as 1.56 to 6.25 µg/mL (≈ 4.37 to 17.5 µM) and the MIC [2] is reported as 0.2 to 0.78 µg/mL (≈ 0.56 to 2.18 µM).
Molecule `Cn1nc(-c2cccnc2Oc2ccc(C(F)(F)F)nc2)c2cccnc21` [I-47, 1-methyl-3-(2-{[6-(trifluoromethyl)pyridin-3-yl]oxy}pyridin-3-yl)-1H-pyrazolo[3,4-b]pryidine] has an MIC [1] of 1.56 to 6.25 µg/mL (≈ 4.2 to 16.8 µM) and an MIC [2] of 1.56 to 6.25 µg/mL (≈ 4.2 to 16.8 µM).
Molecule `Cc1cc(-c2cccnc2Oc2ccc(C(F)(F)F)nc2)n2nccc2n1` [I-48, 5-methyl-7-(2-{[6-(trifluoromethyl)pyridin-3-yl]oxy}pyridin-3-yl)-pyrazolo[1,5-a]pyrimidine] has an MIC [1] of 1.56 to 6.25 µg/mL (≈ 4.2 to 16.8 µM) and an MIC [2] of 0.2 to 0.78 µg/mL (≈ 0.539 to 2.1 µM).
In the case of `FC(F)(F)c1ccc(Oc2ncccc2-c2cnn3ccccc23)cn1` [I-49, 3-(2-{[6-(trifluoromethyl)pyridin-3-yl]oxy}pyridin-3-yl)-pyrazolo[1,5-a]pryidine], the MIC [1] is reported as 1.56 to 6.25 µg/mL (≈ 4.38 to 17.5 µM) and the MIC [2] is reported as 1.56 to 6.25 µg/mL (≈ 4.38 to 17.5 µM).
`FC(F)(F)c1ccc(Oc2ncccc2-n2ccc3cccnc32)cn1` [I-50, 1-(2-{[6-(trifluoromethyl)pyridin-3-yl]oxy}pyridin-3-yl)-1H-pyrrolo[2,3-b]pryidine] showed an MIC [1] of 0.2 to 0.78 µg/mL (≈ 0.561 to 2.19 µM) and an MIC [2] of 0.2 to 0.78 µg/mL (≈ 0.561 to 2.19 µM).
`FC(F)(F)c1ccc(Oc2ncccc2-c2cccc3c(Cl)cnn23)cn1` [I-51, 3-chloro-7-(2-{[6-(trifluoromethyl)pyridin-3-yl]oxy}pyridin-3-yl)-pyrazolo[1,5-a]pyridine] was tested, and the MIC [1] was ≤ 0.1 µg/mL and the MIC [2] was ≤ 0.1 µg/mL.
For `FC(F)(F)c1ccc(Oc2ncccc2-c2cccc3c(Br)cnn23)cn1` [I-52, 3-bromo-7-(2-{[6-(trifluoromethyl)pyridin-3-yl]oxy}pyridin-3-yl)-pyrazolo[1,5-a]pyridine], the MIC [1] was 0.2 to 0.78 µg/mL (≈ 0.46 to 1.79 µM) and the MIC [2] was ≤ 0.1 µg/mL.
For `Cc1cnn2c(-c3cccnc3Oc3ccc(C(F)(F)F)nc3)cccc12` [I-53, 3-methyl-7-(2-{[6-(trifluoromethyl)pyridin-3-yl]oxy}pyridin-3-yl)-pyrazolo[1,5-a]pyridine], the MIC [1] was 0.2 to 0.78 µg/mL (≈ 0.54 to 2.11 µM) and the MIC [2] was ≤ 0.1 µg/mL.
In the case of `N#Cc1cnn2c(-c3cccnc3Oc3ccc(C(F)(F)F)nc3)cccc12` [I-54, 7-(2-{[6-(trifluoromethyl)pyridin-3-yl]oxy}pyridin-3-yl)-pyrazolo[1,5-a]pyridine-3-carbonitrile], the MIC [1] is reported as 0.2 to 0.78 µg/mL (≈ 0.524 to 2.05 µM) and the MIC [2] is reported as 0.2 to 0.78 µg/mL (≈ 0.524 to 2.05 µM).
`FC(F)(F)c1ccc(Oc2ncccc2-c2ccccc2OCC2CCC2)cn1` [I-55, 3-[2-(cyclobutylmethoxy)phenyl]-2-{[6-(trifluoromethyl)pyridin-3-yl]oxy}pyridine] gave an MIC [1] of 0.2 to 0.78 µg/mL (≈ 0.5 to 1.95 µM) and an MIC [2] of 0.2 to 0.78 µg/mL (≈ 0.5 to 1.95 µM).
In the case of `C#CCOc1ccccc1-c1cccnc1Oc1ccc(C(F)(F)F)nc1` [I-56, 3-[2-(2-propyn-1-yloxy)phenyl]-2-{[6-(trifluoromethyl)pyridin-3-yl]oxy}pryidine], the MIC [1] is reported as 0.2 to 0.78 µg/mL (≈ 0.54 to 2.11 µM) and the MIC [2] is reported as 0.2 to 0.78 µg/mL (≈ 0.54 to 2.11 µM).
`FC(F)(F)c1ccc(Oc2ncccc2-c2ccccc2OCC2CC2)cn1` [I-57, 3-[2-(cyclopropylmethoxy)phenyl]-2-{[6-(trifluoromethyl)pyridin-3-yl]oxy}pryidine] showed an MIC [1] of 0.2 to 0.78 µg/mL (≈ 0.518 to 2.02 µM) and an MIC [2] of 0.2 to 0.78 µg/mL (≈ 0.518 to 2.02 µM).
With `FC(F)(F)c1ccc(Oc2ncccc2-c2ccccc2C2CC2)cn1` [I-59, 3-(2-cyclopropylphenyl)-2-{[6-(trifluoromethyl)pyridin-3-yl]oxy}pryidine] the MIC [1] was 0.2 to 0.78 µg/mL (≈ 0.561 to 2.19 µM) and the MIC [2] was 0.2 to 0.78 µg/mL (≈ 0.561 to 2.19 µM).
For `COCc1ccccc1-c1cccnc1Oc1ccc(C(F)(F)F)nc1` [I-60], the MIC [1] was 0.2 to 0.78 µg/mL (≈ 0.555 to 2.16 µM) and the MIC [2] was 0.2 to 0.78 µg/mL (≈ 0.555 to 2.16 µM).
Work on `Nc1ccccc1-c1cccnc1Oc1ccc(C(F)(F)F)nc1` [I-61, 2-(2-{[6-(trifluoromethyl)pyridin-3-yl]oxy}pyridin-3-yl)-aniline] yielded an MIC [1] of 1.56 to 6.25 µg/mL (≈ 4.71 to 18.9 µM) and an MIC [2] of 1.56 to 6.25 µg/mL (≈ 4.71 to 18.9 µM).
`CN(C)c1ccccc1-c1cccnc1Oc1ccc(C(F)(F)F)nc1` [I-62, N,N-dimethyl-2-(2-{[6-(trifluoromethyl)pyridin-3-yl]oxy}pyridin-3-yl)-aniline] was tested, and the MIC [1] was 1.56 to 6.25 µg/mL (≈ 4.34 to 17.4 µM) and the MIC [2] was 0.2 to 0.78 µg/mL (≈ 0.557 to 2.17 µM).
In the case of `O=Cc1ccccc1-c1cccnc1Oc1ccc(C(F)(F)F)nc1` [I-63, 2-(2-{[6-(trifluoromethyl)pyridin-3-yl]oxy}pyridin-3-yl)-benzaldehyde], the MIC [1] is reported as 0.2 to 0.78 µg/mL (≈ 0.581 to 2.27 µM) and the MIC [2] is reported as 0.2 to 0.78 µg/mL (≈ 0.581 to 2.27 µM).
For `C#Cc1ccccc1-c1cccnc1Oc1ccc(C(F)(F)F)nc1` [I-64, 3-(2-ethynylphenyl)-2-{[6-(trifluoromethyl)pyridin-3-yl]oxy}pyridine], the MIC [1] was ≤ 0.1 µg/mL and the MIC [2] was ≤ 0.1 µg/mL.
With `COc1ccccc1-c1c(C)ccnc1Oc1ccc(C(F)(F)F)nc1` [I-65, 3-(2-methoxyphenyl)-4-methyl-2-{[6-(trifluoromethyl)pyridin-3-yl]oxy}pyridine] the MIC [1] was 0.2 to 0.78 µg/mL (≈ 0.555 to 2.16 µM) and the MIC [2] was ≤ 0.1 µg/mL.
`COc1ccccc1-c1cc(C)cnc1Oc1ccc(C(F)(F)F)nc1` [I-66, 3-(2-methoxyphenyl)-5-methyl-2-{[6-(trifluoromethyl)pyridin-3-yl]oxy}pyridine] gave an MIC [1] of 1.56 to 6.25 µg/mL (≈ 4.33 to 17.3 µM) and an MIC [2] of 0.2 to 0.78 µg/mL (≈ 0.555 to 2.16 µM).
For `COc1ccccc1-c1ccc(C)nc1Oc1ccc(C(F)(F)F)nc1` [I-67], the MIC [1] was 0.2 to 0.78 µg/mL (≈ 0.555 to 2.16 µM) and the MIC [2] was 0.2 to 0.78 µg/mL (≈ 0.555 to 2.16 µM).
With `COc1ccccc1-c1cccnc1Oc1ccc(C)nc1` [I-68] the MIC [1] was 1.56 to 6.25 µg/mL (≈ 5.34 to 21.4 µM) and the MIC [2] was 1.56 to 6.25 µg/mL (≈ 5.34 to 21.4 µM).
In the case of `COc1ccccc1-c1cccnc1Oc1ccc(COC(C)=O)nc1` [I-69, (5-{[3-(2-methoxyphenyl)-pyridin-2-yl]oxy}pyridin-2-yl)methyl acetate], the MIC [1] is reported as 1.56 to 6.25 µg/mL and the MIC [2] is reported as 1.56 to 6.25 µg/mL.
`COc1ccccc1-c1cccnc1Oc1ccc(C=O)nc1` [I-71, 5-{[3-(2-methoxyphenyl)pyridin-2-yl]oxy}picolinaldehyde] showed an MIC [1] of 1.56 to 6.25 µg/mL (≈ 5.09 to 20.4 µM) and an MIC [2] of 1.56 to 6.25 µg/mL (≈ 5.09 to 20.4 µM).
`COc1ccccc1-c1cccnc1Oc1ccc(C(F)F)nc1` [I-72, 2-{[6-(difluoromethyl)pyridin-3-yl]oxy}(2-methoxyphenyl)pyridine] showed an MIC [1] of 0.2 to 0.78 µg/mL (≈ 0.609 to 2.38 µM) and an MIC [2] of 0.2 to 0.78 µg/mL (≈ 0.609 to 2.38 µM).
`COc1cc(F)ccc1-c1cccnc1Oc1ccc(C(F)F)nc1` [I-73, 2-{[6-(difluoromethyl)pyridin-3-yl]oxy}-3-(4-fluoro-2-methoxyphenyl)pyridine] was tested, and the MIC [1] was ≤ 0.1 µg/mL and the MIC [2] was ≤ 0.1 µg/mL.
For `COc1ccc(F)c(-c2cccnc2Oc2ccc(C(F)F)nc2)c1` [I-74, 2-{[6-(difluoromethyl)pyridin-3-yl]oxy}-3-(2-fluoro-5-methoxyphenyl)pyridine], the MIC [1] was ≤ 0.1 µg/mL and the MIC [2] was ≤ 0.1 µg/mL.
With `COc1cc(-c2cccnc2Oc2ccc(C(F)F)nc2)ccc1F` [I-75, 2-{[6-(difluoromethyl)pyridin-3-yl]oxy}-3-(4-fluoro-3-methoxyphenyl)pyridine] the MIC [1] was ≤ 0.1 µg/mL and the MIC [2] was ≤ 0.1 µg/mL.
`COc1cc(F)c(F)cc1-c1cccnc1Oc1ccc(C(F)F)nc1` [I-76, 3-(4,5-difluoro-2-methoxyphenyl)-2-{[6-(difluoromethyl)pyridin-3-yl]oxy}pyridine] was tested, and the MIC [1] was ≤ 0.1 µg/mL and the MIC [2] was ≤ 0.1 µg/mL.
